Source: patent publication US10913780B2, “Conjugates, their compositions, their uses, and their methods of making” (THE ADMINISTRATORS OF THE TULANE EDUCATIONAL FUND, priority 2016, dated 2021)
Bridge positions count the residues as written; N and C are the ends. Square brackets hold non-standard residues; d marks the D form. * marks the point of attachment. 4‑mercaptophenylacetyl = O=C(Cc1ccc(S)cc1)*; Nle = CCCC[C@H](N)C(=O)O

System: activated human T-cells (Jurkat)
Test: Inhibition of IL-2 release from a culture of activated human T-cells (Jurkat)
Type: cell-based
Conditions: for inhibition of IL-2 release: Jurkat cells stimulated with lectin and Phorbol, overnight, potency compared with tacrolimus (FK-506); for effect on IL-2 release in the presence of increasing amounts of lanreotide: large excess of the somatostatin type 2 agonist lanreotide
Protocol: Cells were harvested, washed twice, and re-suspended in serum-free medium at a cell density of 4×10^6 cells/ml. Fifty μl of cell suspension was then added to each well of 96-well plates followed by 50 μl of tested compounds at different concentration (4×) for 1 hour at 37° C. The cells were stimulated to release IL-2 by adding 50 μl of lectin in PBS (10 μg/ml) and 50 μl of Phorbol in DMSO (100 ng/ml) to each well and continuing overnight incubation. The plates were centrifuged for 10 min at 1500 rpm and supernatants harvested for IL-2 assay using kits purchased from R&D Systems (Minneapolis, Minn.) and following the experimental directions provided.

Compound	inhibition of IL-2 release	inhibition of IL-2 release (listed as 32-thiol analog of tacrolimus)	inhibition of IL-2 release (listed as tacrolimus-32-SH)	effect on IL-2 release in the presence of increasing amounts of lanreotide	effect on IL-2 release in the presence of increasing amounts of lanreotide (listed as tacrolimus-32-SH-somatostatin)
C=CC[C@@H]1/C=C(\C)C[C@H](C)C[C@H](OC)[C@H]2O[C@@](O)(C(=O)C(=O)N3CCCC[C@H]3C(=O)O[C@H](/C(C)=C/[C@@H]3CC[C@@H](O)[C@H](OC)C3)[C@H](C)[C@@H](O)CC1=O)[C@H](C)C[C@@H]2OC [Tacrolimus, reference compound]	potent inhibitor	–	–	–	–
C=CC[C@@H]1/C=C(\C)C[C@H](C)C[C@H](OC)[C@H]2O[C@@](O)(C(=O)C(=O)N3CCCC[C@H]3C(=O)O[C@H](/C(C)=C/[C@@H]3CCC(S)[C@H](OC)C3)[C@H](C)[C@@H](O)CC1=O)[C@H](C)C[C@@H]2OC (stereo partly drawn) [tacrolimus-32-thiol, Tacrolimus-32-Thiol]	–	virtually equipotent with the parent compound	equivalent potencies	–	–
Example 10: Tacrolimus-32-thiol linked by a disulfide bond (4-mercaptophenylacetic acid) to the cyclized somatostatin analog peptide of Example 9 ({tacrolimus‑32‑thiol (disulfide)-4‑mercaptophenylacetyl}-[dS]S[dS]S[dS][Nle][dY][dS]CF[dW]KTCT-NH2; disulfide 9-14)	virtually equipotent	–	–	blocked the IL-2 release inhibiting capability	Blockade of biological activity
